Laboratory results taken from ChEMBL document CHEMBL4431375, “Stereochemistry Balances Cell Permeability and Solubility in the Naturally Derived Phepropeptin Cyclic Peptides” (ACS Med Chem Lett, 2016).
In brackets after ≈: the same amount, converted by molar mass.

Columns and labels:
[1] = Apparent passive permeability in MDCK cells expressing MDR1 (unknown origin) at 5 uM measured after 60 mins by LC-MS/MS analysis; assay type: ADME, cell-based, Canis lupus familiaris; details: dog
[2] = Thermodynamic aqueous solubility of the compound at 2 mM and pH 7.4 measured after 20 hrs by HPLC analysis; assay type: physicochemical; details: aqueous medium, read-out: Therm_solubility
[3] = Octanol-water partition coefficient, log D of the compound at pH 7.4 by shake flask method; assay type: physicochemical
[4] = Metabolic stability in human plasma assessed as compound degradation at 2 uM measured after 30 mins by LC-ESI/MS analysis; assay type: ADME, cell-free; details: 0.5 h

Structure (SMILES)	Papp at 1 h, 5 µM [1]	solubility thermodynamic at 20 h, 2000 µM [2]	logD [3]	Stability [4]
CC(C)C[C@@H]1NC(=O)[C@H](C(C)C)NC(=O)[C@@H](CC(C)C)NC(=O)[C@H](Cc2ccccc2)NC(=O)[C@H]2CCCN2C(=O)[C@@H](Cc2ccccc2)NC1=O	11 ×10⁻⁶ cm/s	70 µg/mL (≈ 97.6 µM)	2.41	Stable
CC[C@H](C)[C@@H]1NC(=O)[C@@H](CC(C)C)NC(=O)[C@H](CC(C)C)NC(=O)[C@@H]2CCCN2C(=O)[C@@H](Cc2ccccc2)NC(=O)[C@H](CC(C)C)NC1=O	40 ×10⁻⁶ cm/s	60 µg/mL (≈ 86.1 µM)	2.63	Stable
CC[C@H](C)[C@@H]1NC(=O)[C@@H](CC(C)C)NC(=O)[C@H](Cc2ccccc2)NC(=O)[C@@H]2CCCN2C(=O)[C@@H](Cc2ccccc2)NC(=O)[C@H](CC(C)C)NC1=O	40 ×10⁻⁶ cm/s	10 µg/mL (≈ 13.7 µM)	–	Stable
CC(C)C[C@@H]1NC(=O)[C@H](C(C)C)NC(=O)[C@@H](CC(C)C)NC(=O)[C@H](Cc2ccccc2)NC(=O)[C@@H]2CCCN2C(=O)[C@@H](Cc2ccccc2)NC1=O	39 ×10⁻⁶ cm/s	50 µg/mL (≈ 69.7 µM)	2.33	Stable
CC[C@H](C)[C@@H]1NC(=O)[C@@H](CC(C)C)NC(=O)[C@H](CC(C)C)NC(=O)[C@H]2CCCN2C(=O)[C@@H](Cc2ccccc2)NC(=O)[C@H](CC(C)C)NC1=O	15 ×10⁻⁶ cm/s	70 µg/mL (≈ 100 µM)	2.39	Stable
CC[C@H](C)[C@@H]1NC(=O)[C@@H](CC(C)C)NC(=O)[C@H](Cc2ccccc2)NC(=O)[C@H]2CCCN2C(=O)[C@@H](Cc2ccccc2)NC(=O)[C@H](CC(C)C)NC1=O	18 ×10⁻⁶ cm/s	30 µg/mL (≈ 41 µM)	–	Stable
CC(C)C[C@@H]1NC(=O)[C@H](C(C)C)NC(=O)[C@@H](CC(C)C)NC(=O)[C@H](CC(C)C)NC(=O)[C@@H]2CCCN2C(=O)[C@@H](Cc2ccccc2)NC1=O	33 ×10⁻⁶ cm/s	170 µg/mL (≈ 249 µM)	2.08	Stable
CC(C)C[C@@H]1NC(=O)[C@H](C(C)C)NC(=O)[C@@H](CC(C)C)NC(=O)[C@H](CC(C)C)NC(=O)[C@H]2CCCN2C(=O)[C@@H](Cc2ccccc2)NC1=O	8 ×10⁻⁶ cm/s	150 µg/mL (≈ 220 µM)	2.37	Stable
